The nature of the series: Soft spot identification time course in dilute rat intestinal luminal contents with 2PCA derivatization. The format is in vitro ADME. The conditions noted are these: 10 µM peptide; for metabolic soft spot: most N-terminal residue of the ring-opened (singly hydrolyzed) peptide, assigned through the 2PCA tag: dilute rat intestinal luminal contents (fasted male SD rats, duodenum and jejunum), 0.02 mg/mL total protein in 5 mM pH 7.4 phosphate buffer, 37 °C, aliquots at 0, 2.5, 10, 20 min, quenched with acetonitrile containing 20 mM 2PCA, overnight at room temperature, LC-MS/MS (targeted MS/MS, AIF, background subtraction). On the procedure:
This three-pronged approach was used to analyze two commercially available cyclic peptides, JB1 and somatostatin, in a typical soft spot identification workflow with automated sample preparation. Both JB1, a 12-mer cyclic peptide with the sequence CYAAPLKPAKSC, and somatostatin, a 14-mer cyclic peptide with the sequence AGCKNFFWKTFTSC (disulfide bound between Cys residues), were subjected to incubation in dilute rat intestinal luminal contents matrix on a liquid handling system. To facilitate unsupervised sample preparation, the enzymatic activity of the matrix was quenched with 1 volume of acetonitrile containing 20 mM 2PCA and incubated overnight. The following day, the samples were injected into the MS for analysis directly with the approach outlined in Figure 3. To increase the throughput and proportion of ‘hands-off’ time, the derivatization step was not quenched, and excess reagent or Schiff bases formed during the incubation were not scavenged by hydrazide (as was performed during the selectivity experiments on the tryptic HeLa lysate). While omitting the hydrazide scavenging step could introduce a decrease in sensitivity due to Schiff base formation on basic sites, the concentrations typically used in in vitro incubations ensure that minor decreases in sensitivity will not have deleterious effects on the workflow as a whole. In this case, the liquid handler utilized was unable to manipulate magnetic beads, but future experiments will incorporate a magnetic-bead-compatible liquid handler to incorporate the scavenging step. The method described has the potential to create more than one 2PCA adduct on a given peptide with basic sites, but the utilization of a targeted approach for the singly modified peptide as outlined here circumvents that complication and ensures MS/MS sampling of the peptide of interest.
HeLa S9 lysate tryptic digest was purchased from ThermoFisher (San Jose, CA, USA). […]
The flushed intestinal luminal contents from fasted rats were pooled and the concentration of protein was determined. […]

Where a SMILES comes first, the peptide text is derived from it. Bridges are numbered along the chain shown (N, C = ends).

For the molecule `C[C@H](N)C(=O)NCC(=O)N[C@H]1CSSC[C@@H](C(=O)O)NC(=O)[C@H](CO)NC(=O)[C@H]([C@@H](C)O)NC(=O)[C@H](Cc2ccccc2)NC(=O)[C@H]([C@@H](C)O)NC(=O)[C@H](CCCCN)NC(=O)[C@H](Cc2c[nH]c3ccccc23)NC(=O)[C@H](Cc2ccccc2)NC(=O)[C@H](Cc2ccccc2)NC(=O)[C@H](CC(N)=O)NC(=O)[C@H](CCCCN)NC1=O` [somatostatin], the “metabolic soft spot: most N-terminal residue of the ring-opened (singly hydrolyzed) peptide, assigned through the 2PCA tag” value is reported as “first threonine (followed by phenylalanine)”. `CC(C)C[C@@H]1NC(=O)[C@@H]2CCCN2C(=O)[C@H](C)NC(=O)[C@H](C)NC(=O)[C@H](Cc2ccc(O)cc2)NC(=O)[C@@H](N)CSSC[C@@H](C(=O)O)NC(=O)[C@H](CO)NC(=O)[C@H](CCCCN)NC(=O)[C@H](C)NC(=O)[C@@H]2CCCN2C(=O)[C@H](CCCCN)NC1=O` [JB1] (H-CYAAPLKPAKSC-OH; disulfide 1-12): the “metabolic soft spot: most N-terminal residue of the ring-opened (singly hydrolyzed) peptide, assigned through the 2PCA tag” value was “serine”. In addition, the “secondary metabolite (subsequent hydrolysis step after ring opening)” value (dilute rat intestinal luminal contents, 0.02 mg/mL protein, pH 7.4, 37 °C, 10 min time point, background subtracted AIF XIC of m/z 107.0609) is “clipping of the C-terminal Lysine residue”.

Source of the values: publication PMC9028278, “2-Pyridine Carboxaldehyde for Semi-Automated Soft Spot Identification in Cyclic Peptides” (International Journal of Molecular Sciences, 2022).
